Results reported in patent US20260091020A1, “TREATMENT OF ACUTE CANNABINOID OVERDOSE” (Anebulo Pharmaceuticals, Inc., priority 2022, published 2026).

Tested on: central nervous system effects of THC
Experiment: THC challenge PD, 21-30 mg THC with 10 or 30 mg Compound 1, simultaneous or 1 hr delay (Examples 4 and 9)
Assay type: in vivo, human
Experimental: FIG. 14 depicts a randomized, double-blind, placebo controlled study. Left to right. (a) 14 Adult volunteers ages 18-45 are selected; (b) A single oral dose and 24-hour assessment is conducted for groups (1) 21 mg THC+placebo; and (2) 21 mg THC+30 mg ANEB-001 (c) 7 to 14 day follow up is conducted. Primary endpoints include inhibition of central nervous system effects of THC using (a) visual analog scale “feeling high”; (b) visual analog scale “alertness”; (c) body sway; (d) heart rate. Secondary endpoints include additional efficacy metrics, safety/tolerability, PK, and PK/PD correlations.
FIG. 15 depicts a randomized, double-blind, placebo controlled study. Left to right: (a) 11 Adult volunteers ages 18-45 are selected; (b) A single oral dose and 24-hour assessment is conducted for groups (1) 21 mg THC+placebo; and (2) 21 mg THC+10 mg ANEB-001 (c) 7 to 14 day follow up is conducted. Primary endpoints include inhibition of central nervous system effects of THC using (a) visual analog scale “feeling high”; (b) visual analog scale “alertness”; (c) body sway; (d) heart rate. Secondary endpoints include additional efficacy metrics, safety/tolerability, PK, and PK/PD correlations.
Following the general methods of Example 2, the study design was adjusted such that groups received either (a) THC (21 mg)+placebo or (b) THC (21 mg)+Compound 1 (30 mg) (FIG. 14) or either (a) THC (21 mg)+placebo or (b) THC (21 mg)+Compound 1 (10 mg) (FIG. 15). […] Summary of pharmacokinetics of THC with 30 mg ANEB-001 challenge (FIG. 18A and FIG. 18B), AUC after 5 hours (FIG. 18C), AUC last (FIG. 18D) and Cmax (FIG. 18E).
Following the general methods of Examples 1-3, the study design was adjusted such that Compound 1 was administered 1 hour after administration of THC. Groups received either (a) THC (21 mg)+Compound 1 (10 mg); (b) THC […]+Compound 1 (10 mg); (c) THC (30 mg)+Compound 1 (10 mg); or (d) THC (30 mg)+Compound 1 (10 mg). […] Endpoints were then evaluated as generally described in Example 1, and PK properties were measured as shown for the general methods of Example 2.

[1] = 30 mg THC, 10 mg ANEB-001, 1 hr Delay, p = 0.0007
[2] = 30 mg THC, 10 mg ANEB-001, 1 hr Delay, p = <0.0001
[3] = 21-30 mg THC, 10 mg ANEB-001, 1 hr Delay (pooled), p = <0.0001

In the case of CC(C)(C)NC(=O)N1CC(O[C@H](c2ccc(Cl)cc2)c2ccccc2C(F)(F)F)C1 [Compound 1, (R)—N-(tert-butyl)-3-((4-chlorophenyl)(2-(trifluoromethyl)phenyl)methoxy)azetidine-1-carboxamide], the “Body Sway, Alertness and Feeling High vs. placebo” value (21 mg THC + 30 mg ANEB-001) is reported as “improvements in Body Sway (FIG. 16A), Alertness (FIG. 16B) and Feeling High (FIG. 16C)”, the “VAS Feeling High log(mm)” value (21 mg THC, 10 mg ANEB-001, 1 hr Delay, p = 0.0380) is reported as −0.5545 log(mm) and the “Body Sway (mm)” value (21 mg THC, 10 mg ANEB-001, 1 hr Delay, p = 0.0406) is reported as −3%. For the same compound, the “VAS External Perception log(mm)” value (21 mg THC, 10 mg ANEB-001, 1 hr Delay, p = 0.0530) was “Modified”, the “Heart Rate (supine) (bpm)” value (21 mg THC, 10 mg ANEB-001, 1 hr Delay, p = 0.0589) was 10.3 bpm and the “VAS Alertness (mm)” value (21 mg THC, 10 mg ANEB-001, 1 hr Delay, p = 0.4834) was 4.4 mm. The “Responder Rate (VAS Feeling High)” value (21 mg THC, 10 mg ANEB-001, 1 hr Delay, p = <0.0001) was “Reversed”, the “VAS Feeling High log(mm)” value (21 mg THC, 10 mg ANEB-001, Simultaneous, p = 0.0001) was −0.7072 log(mm) and the “Responder Rate (VAS Feeling High)” value (21 mg THC, 10 mg ANEB-001, Simultaneous, p = 0.0002) was “Reversed”. The “VAS External Perception log(mm)” value (21 mg THC, 10 mg ANEB-001, Simultaneous, p = 0.0037) was “Reversed”, the “VAS Alertness (mm)” value (21 mg THC, 10 mg ANEB-001, Simultaneous, p = 0.0047) was 9.2 mm and the “Body Sway (mm)” value (21 mg THC, 10 mg ANEB-001, Simultaneous, p = 0.0069) was −29.3%. The “VAS Internal Perception log(mm)” value (21 mg THC, 10 mg ANEB-001, Simultaneous, p = 0.0120) was “Reversed”, the “Heart Rate (supine) (bpm)” value (21 mg THC, 10 mg ANEB-001, Simultaneous, p = 0.7264) was −1.1 bpm and the “VAS External Perception log(mm)” value (21 mg THC, 30 mg ANEB-001, Simultaneous, p = 0.0010) was “Reversed”. For the same compound, the “VAS Alertness (mm)” value (21 mg THC, 30 mg ANEB-001, Simultaneous, p = 0.0013) was 10.8 mm, the “VAS Internal Perception log(mm)” value (21 mg THC, 30 mg ANEB-001, Simultaneous, p = 0.0016) was “Reversed” and the “Responder Rate (VAS Feeling High)” value (21 mg THC, 30 mg ANEB-001, Simultaneous, p = 0.0019) was “Reversed”. For the same compound, the “Body Sway (mm)” value (21 mg THC, 30 mg ANEB-001, Simultaneous, p = 0.0023) was −30.6%, the “Heart Rate (supine) (bpm)” value (21 mg THC, 30 mg ANEB-001, Simultaneous, p = 0.4730) was −2.2 bpm and the “VAS Feeling High log(mm)” value (21 mg THC, 30 mg ANEB-001, Simultaneous, p = <0.0001) was −0.7856 log(mm). The “VAS External Perception log(mm)” value (21 mg THC, 10-30 mg ANEB-001, Simultaneous (pooled), p = 0.0004) was “Reversed”, the “Responder Rate (VAS Feeling High)” value (21 mg THC, 10-30 mg ANEB-001, Simultaneous (pooled), p = 0.0005) was “Reversed” and the “VAS Alertness (mm)” value (21 mg THC, 10-30 mg ANEB-001, Simultaneous (pooled), p = 0.0007) was 15.6 mm. The “VAS Internal Perception log(mm)” value (21 mg THC, 10-30 mg ANEB-001, Simultaneous (pooled), p = 0.0012) was “Reversed”, the “Body Sway (mm)” value (21 mg THC, 10-30 mg ANEB-001, Simultaneous (pooled), p = 0.0013) was −30.0% and the “Heart Rate (supine) (bpm)” value (21 mg THC, 10-30 mg ANEB-001, Simultaneous (pooled), p = 0.8247) was 0.6 bpm. For the same compound, the “VAS Feeling High log(mm)” value (21 mg THC, 10-30 mg ANEB-001, Simultaneous (pooled), p = <0.0001) was −0.7364 log(mm), the THC-induced body sway (21 mg or 30 mg THC, coadministration or Compound 1 after THC) was “significant reduction in body sway” and the “VAS bad drug effect” value (30 mg THC, 10 mg ANEB-001, 1 hr Delay, p = 0.0003) was “Reversed”. For the same compound, the “VAS External Perception log(mm)” value [1] was “Reversed”, the “VAS Internal Perception log(mm)” value [1] was “Reversed” and the “VAS Alertness (mm)” value (30 mg THC, 10 mg ANEB-001, 1 hr Delay, p = 0.0042) was 10.8 mm. The “VAS good drug effect” value (30 mg THC, 10 mg ANEB-001, 1 hr Delay, p = 0.0112) was “Reversed”, the “Body Sway (mm)” value (30 mg THC, 10 mg ANEB-001, 1 hr Delay, p = 0.0196) was −34.8% and the “Heart Rate (supine) (bpm)” value (30 mg THC, 10 mg ANEB-001, 1 hr Delay, p = 0.1119) was 6.7 bpm. The “Responder Rate (VAS Feeling High)” value [2] was “Reversed”, the “VAS Feel drug effect” value [2] was “Reversed” and the “VAS Feeling High log(mm)” value [2] was −0.8581 log(mm). The “Responder Rate (VAS Feeling High)” value (21-30 mg THC, 10 mg ANEB-001, 1 hr Delay (pooled), p = 0.0002) was “Reversed”, the “VAS Feel drug effect” value (21-30 mg THC, 10 mg ANEB-001, 1 hr Delay (pooled), p = 0.0003) was “Reversed” and the “Body Sway (mm)” value (21-30 mg THC, 10 mg ANEB-001, 1 hr Delay (pooled), p = 0.0014) was −32.4%. For the same compound, the “VAS good drug effect” value (21-30 mg THC, 10 mg ANEB-001, 1 hr Delay (pooled), p = 0.0021) was “Reversed”, the “VAS Alertness (mm)” value (21-30 mg THC, 10 mg ANEB-001, 1 hr Delay (pooled), p = 0.0024) was 11.3 mm and the “VAS Internal Perception log(mm)” value (21-30 mg THC, 10 mg ANEB-001, 1 hr Delay (pooled), p = 0.0040) was “Reversed”. For the same compound, the “Heart Rate (supine) (bpm)” value (21-30 mg THC, 10 mg ANEB-001, 1 hr Delay (pooled), p = 0.0125) was −8.1 bpm, the “VAS bad drug effect” value (21-30 mg THC, 10 mg ANEB-001, 1 hr Delay (pooled), p = 0.0274) was “Reversed” and the “VAS External Perception log(mm)” value [3] was “Reversed”. For the same compound, the “VAS Feeling High log(mm)” value [3] was −0.7028 log(mm), the “VAS drug effects (feeling any drug effect)” value (Compound 1 one hour after THC, vs THC alone) was “highly significant reduction in feeling any drug effect” and the “Proportion of responders (reduction in feeling high)” value (THC 21 or 30 mg, 10 mg or 30 mg Compound 1, vs THC alone) was “highly significant increase in the proportion of responders”. For the same compound, the VAS alertness (coadministration or Compound 1 after THC, vs THC alone) was “significant reduction in VAS alertness”, the “Recovery time (feeling high time course)” value (coadministration or Compound 1 one hour after THC) was “reduced recovery time by several hours” and the VAS feeling high (coadministration or Compound 1 one hour after THC, vs THC alone, overall p<0.0001) was “highly significant reduction in feeling high”. The “All primary outcomes, pre-specified pooled analysis” value (combined 21 mg or 30 mg THC, 10 mg Compound 1 one hour after THC) was “achieved statistical significance on all primary outcomes” and the “Key psychotropic effects of THC” value (single oral 10 mg Compound 1, 1 hour after THC challenge, THC doses as high as 30 mg) was “rapidly reversed key psychotropic effects of THC”.
